GH, Insulin and Glucagon data for 2 molecules are collected here from patent publication US3991041A, “(Phe3 -Ala)1 -somatostatin” (American Home Products Corporation, priority 1975, dated 1976).

What all share (type): in vivo, albino male rats
For assay [1], the system named is growth hormone. Description: Nembutal/arginine rat test, blood radioimmunoassayed for growth hormone. As for the experimental part:
(§1) Nembutal (50 mg/kg) was injected intraperitoneally into each rat. Fifteen minutes later a subcutaneous injection of the test compound, somatostatin (200 μg/kg) and physiological saline (control) was administered separately to each of the three groups of rats. Ten minutes later 0.5 milliliters of arginine (300 mg/ml, pH 7.2) was injected into the rats heart. The rats were decapitated five minutes later and their blood was collected in Trasylol -EDTA. Aliquot samples were radioimmunoassayed for growth hormone, glucagon and insulin. The cyclic heptadecapeptide of this invention, with Trp in the L-configuration and in the form of the C-terminal carboxylic acid, selected as representative of the group of compounds disclosed for test purposes, was employed in two additional distinct test procedures at about 5,000 μg/kg dose levels.

Assay [2] has as its system insulin. The experiment in a line: Nembutal/arginine rat test, blood radioimmunoassayed for insulin. As for the experimental part:
as §1

Assay [3] concerns glucagon. Description: Nembutal/arginine rat test, blood radioimmunoassayed for glucagon. As for the experimental part: as §1

Structures are written as SMILES.

In the case of `C[C@H](NC(=O)[C@H](Cc1ccccc1)NC(=O)[C@H](Cc1ccccc1)NC(=O)[C@@H](N)Cc1ccccc1)C(=O)NCC(=O)N[C@H]1CSSC[C@@H](C(=O)O)NC(=O)[C@H](CO)NC(=O)[C@H]([C@@H](C)O)NC(=O)[C@H](Cc2ccccc2)NC(=O)[C@H]([C@@H](C)O)NC(=O)[C@H](CCCCN)NC(=O)[C@H](Cc2c[nH]c3ccccc23)NC(=O)[C@H](Cc2ccccc2)NC(=O)[C@H](Cc2ccccc2)NC(=O)[C@H](CC(N)=O)NC(=O)[C@H](CCCCN)NC1=O` [Example 3, L-phenylalanyl-L-phenylalanyl-L-phenylalanyl-L-alanylglycyl-L-cysteinyl-L- lysyl-L-asparaginyl-L-phenylalanyl-L-phenylalanyl-L-tryptophyl-L-lysyl-L-threonyl-L-phenylalanyl-L-threonyl-L-seryl-L-cysteine, (6→17) triacetate], the GH was found to be 124 ± 11 ng/mL in assay [1] (dose 1,000 μg/kg subcutaneous, Nembutal 50 mg/kg i.p., arginine intracardiac 10 min after dose, blood 5 min later, control 282±31); 97 ± 7 ng/mL in assay [1] (dose 4,660 μg/kg, third test, control 202±26); 27 ± 2 ng/mL in assay [1] (dose 5,000 μg/kg, second test, control 126±25). Besides, the Insulin in assay [2] (dose 1,000 μg/kg subcutaneous, arginine-stimulated rats, control 243±20, * Not Significant) worked out at 204±18 μU/ml; in assay [2] (dose 4,660 μg/kg, third test, control 176±1, * Not Significant), 165±16 μU/ml; in assay [2] (dose 5,000 μg/kg, second test, control 283±37, * Not Significant), 202±37 μU/ml. For the same molecule, the Glucagon in assay [3] (dose 1,000 μg/kg subcutaneous, arginine-stimulated rats, control 17.1±4.8) stood at 0.6 ± 0.2 pg/mL; in assay [3] (dose 4,660 μg/kg, third test, control 3.7±1.3, * Not Significant), 1.1 ± 0.5 pg/mL; in assay [3] (dose 5,000 μg/kg, second test, control 14.0±3) it was 6.5 ± 2.3 pg/mL.

For the molecule `C[C@H](N)C(=O)NCC(=O)N[C@H]1CSSC[C@@H](C(=O)O)NC(=O)[C@H](CO)NC(=O)[C@H]([C@@H](C)O)NC(=O)[C@H](Cc2ccccc2)NC(=O)[C@H]([C@@H](C)O)NC(=O)[C@H](CCCCN)NC(=O)[C@H](Cc2c[nH]c3ccccc23)NC(=O)[C@H](Cc2ccccc2)NC(=O)[C@H](Cc2ccccc2)NC(=O)[C@H](CC(N)=O)NC(=O)[C@H](CCCCN)NC1=O` [SRIF, somatostatin], the GH in assay [1] (dose 200 μg/kg subcutaneous, arginine-stimulated rats, control 282±31) was 117 ± 6 ng/mL. The same molecule gave an Insulin in assay [2] (dose 200 μg/kg subcutaneous, arginine-stimulated rats, control 243±20) of 136±12 μU/ml. This molecule also came in with a Glucagon in assay [3] (dose 200 μg/kg subcutaneous, arginine-stimulated rats, control 17.1±4.8) of 2.0 ± 1.4 pg/mL.
